Source: US11191769B2, “Fused thiophene compounds” (BioTheryX, Inc., priority 2018, dated 2021)

What was measured:
Type in all cases: cell-based
IL-2 = IL-2 fold-change assay, anti-CD3 stimulated PBMCs, Mesoscale; settings: PBMC, PBMCs on anti-human CD3 (OKT3) coated plates, 24 h, fold difference from the DMSO control
Protocol: For the IL-2 analysis, 96 well plates were precoated with 1 μg/mL anti-human CD3 antibody (OKT3, eBioscience Inc., San Diego, Calif.). After washing with PBS, the indicated compound was added (50 μL/well) followed by PBMCs diluted at 3-4 million cells/mL (150 μL/well). Plates were incubated for 24 h and the supernatants collected for Mesoscale IL-2 analysis. IL-2 activity is measured as fold difference from the DMSO control.
(§1) In each of Tables 5-7, the % inhibition values are reported as “A”, “B”, “C”, or “D”. “A” represents a % inhibition value of less than 50% (value <50%). “B” represents a % inhibition value of equal to or more than 50% and less than 70% (50%≤value<70%). “C” represents a % inhibition value of equal to or more than 70% and less than 90% (70%≤value<90%). “D” represents a % inhibition value of equal or more than 90% (value≥90%). In Table 8, the fold-change values are reported as “A”, “B”, “C”, or “D”. “A” represents a fold-change value of equal to or less than 1 (value≤1). “B” represents a fold-change value of more than 1 and equal to or less than 2 (1<value≤2). “C” represents a fold-change value of more than 2 and equal to or less than 3 (2<value≤3). “D” represents a fold-change value of more than 3 (value>3).

TNFα = assay: TNF-α inhibition assay, LPS-induced PBMCs or CD14+ monocytes, Meso Scale; settings: 1 h pretreatment, 100 ng/mL LPS 18-24 h, supernatant
Protocol: (§2) Either frozen primary blood mononuclear cells (PBMCs) or frozen CD14+ mobilized peripheral blood monocytes were purchased from AllCells (PB003F, Normal Peripheral Blood MNC (Alameda, Calif.)). Cells were quick thawed, washed 1-time with RPMI-1640 (10% FBS/1% Pen-Strep) and plated in 96 well plates at 200,000 cells per well. Cells were pretreated with DMSO only or with the indicated compound for 1 h and then induced with 100 ng/mL lipopolysaccharide (LPS) for 18-24 h. The supernatant was analyzed for IL-1β, IL-6, and TNFα, using Meso Scale assay according to manufacturer's protocol. The negative control wells were treated with DMSO.
as §1

IL-1β = IL-1β inhibition assay, LPS-induced PBMCs or CD14+ monocytes, Meso Scale; settings: 1 h pretreatment, 100 ng/mL LPS 18-24 h, supernatant, read-out: I1-1β % Inhibition at 10 μM
Protocol: as §2, §1

IKAROS = target: T1, IKAROS (Homo sapiens, UniProt Q13422+Q96SW2); assay: IKAROS degradation assay (Western blot, MV-4-11 cells); settings: 6-8 hours; for IKAROS % degradation at 1 µM: MV4-11, 1 μM
T1 construct: endogenous in cells; host or cells: MV-4-11
Protocol: (§3) MV-4-11 cells were grown in RPMI 1640 media supplemented with 10% fetal bovine serum, streptomycin and penicillin.
(§4) Cells were cultured at approximately 10^6 cells per mL and incubated in DMSO or the indicated compound for 6-8 hours. Whole cell extracts were prepared using RIPA buffer according to manufacturer's protocol (Pierce). Briefly, 3×10^6 cells were washed once in PBS, the cell pellets were resuspended in RIPA buffer and allowed to incubate for 15 minutes on ice. Cells debris was removed by centrifugation and the cleared whole cell lysates were transferred to new tubes for further analysis.
(§5) For Western blot analysis, whole cell protein extracts were separated on 4-12% SDS-polyacrylamide gels, transferred to nitrocellulose and probed with the indicated primary antibodies. Membranes were subsequently washed and probed with the appropriate IRDye secondary antibodies (LI-COR). The signal was detected using the Odyssey Imaging System (LI-COR).
(§6) The following antibodies were used in these studies: Anti-eRF3/GSPT1: Abcam, ab126090 (Cambridge, Mass.); Anti-Ikaros: Abcam, ab191394 (Cambridge, Mass.); Anti-CK1α: Abcam, ab108296 (Cambridge, Mass.); β-actin (8H10D10) mouse monoclonal antibody: Cell Signaling Technology, #3700 (Danvers, Mass.); IRDye 680RD Goat anti-rabbit antibody: LI-COR, 926-68071 (Lincoln, Nebr.); IRDye 800CW Goat anti-mouse antibody: LI-COR, 926-32210 (Lincoln, Nebr.).
(§7) In each of Tables 1-4, the % degradation values are reported as “A”, “B”, “C”, or “D”. “A” represents a % degradation value of less than 25% (value<25%). “B” represents a % degradation value of equal to or more than 25% and less than 50% (25%≤value<50%). “C” represents a % degradation value of equal to or more than 50% and less than 75% (50%≤value <75%). “D” represents a % degradation value of equal to or more than 75% (value≥75%).

CK1α = target: T2, CK1α (Homo sapiens, UniProt P48729+Q96SW2); assay: CK1α degradation assay (Western blot, MV-4-11 cells); settings: MV4-11, 6-8 hours
T2 construct: Whole cell extracts were prepared using RIPA buffer; endogenous in cells; host or cells: MV-4-11
Protocol: as §3, §4, §5, §6, §7

IL-6 = IL-6 inhibition assay, LPS-induced PBMCs or CD14+ monocytes, Meso Scale; settings: 1 h pretreatment, 100 ng/mL LPS 18-24 h, supernatant
Protocol: as §2, §1

MOLM-13 cells = assay: MOLM-13 cell viability assay (CellTiter-Glo); settings: Homo sapiens, MOLM-13, 72 h, 3 days, % of DMSO control
Protocol: MOLM-13 cells were cultured in RPMI 1640 media supplemented with 10% fetal bovine serum, streptomycin and penicillin, and were plated in white walled 96-well plates at 2500 cells/well. Cells were incubated in DMSO (control) or the indicated compound for 3 days at 37° C. and 5% CO2. Following the incubation period, 100 μL of CellTiterGlow (CTG) reagent (CellTiter-Glo® Luminescent Cell Viability Assay, Promega (Madison, Wis.)) was added to each well. Following a 10 minutes incubation with shaking, luminescence was measured using the EnVision Multimode plate reader.
The MOLM-13 cell viability values as % DMSO are reported as “A”, “B”, “C”, or “D”. “A” represents a % viability value of less than 25% (value<25%). “B” represents a % viability value of equal to or more than 25% and less than 50% (25%≤value<50%). “C” represents a % viability value of equal to or more than 50% and less than 75% (50%≤value<75%). “D” represents a % viability value of equal or more than 75% (value≥75%).

T1 sequence (Q13422 whole entry): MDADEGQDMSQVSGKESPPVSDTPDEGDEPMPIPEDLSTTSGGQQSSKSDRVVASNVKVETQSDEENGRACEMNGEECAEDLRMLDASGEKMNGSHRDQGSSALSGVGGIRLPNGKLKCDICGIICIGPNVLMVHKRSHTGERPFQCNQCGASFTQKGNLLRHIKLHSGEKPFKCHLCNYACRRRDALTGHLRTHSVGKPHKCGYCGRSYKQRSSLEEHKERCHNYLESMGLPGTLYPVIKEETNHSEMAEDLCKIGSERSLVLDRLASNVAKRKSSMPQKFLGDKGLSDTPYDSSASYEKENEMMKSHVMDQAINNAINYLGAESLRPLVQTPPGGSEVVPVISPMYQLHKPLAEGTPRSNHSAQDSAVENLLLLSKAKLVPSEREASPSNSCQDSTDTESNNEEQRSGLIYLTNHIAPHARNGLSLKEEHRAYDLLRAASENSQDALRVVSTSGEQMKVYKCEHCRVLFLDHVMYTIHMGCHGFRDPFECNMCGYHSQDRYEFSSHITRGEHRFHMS
T1 sequence (Q96SW2 whole entry): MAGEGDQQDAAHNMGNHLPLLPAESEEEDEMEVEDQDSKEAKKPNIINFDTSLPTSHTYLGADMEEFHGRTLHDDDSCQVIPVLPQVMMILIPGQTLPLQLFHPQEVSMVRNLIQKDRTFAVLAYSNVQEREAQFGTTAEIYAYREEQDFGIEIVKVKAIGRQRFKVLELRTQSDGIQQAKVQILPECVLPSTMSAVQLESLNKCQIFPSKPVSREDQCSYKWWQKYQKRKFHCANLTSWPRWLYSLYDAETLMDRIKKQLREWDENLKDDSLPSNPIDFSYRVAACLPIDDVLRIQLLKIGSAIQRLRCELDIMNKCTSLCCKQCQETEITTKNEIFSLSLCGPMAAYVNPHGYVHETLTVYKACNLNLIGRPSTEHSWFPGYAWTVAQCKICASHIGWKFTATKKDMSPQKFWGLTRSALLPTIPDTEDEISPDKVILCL
T1 sequence (Q16531 whole entry partner): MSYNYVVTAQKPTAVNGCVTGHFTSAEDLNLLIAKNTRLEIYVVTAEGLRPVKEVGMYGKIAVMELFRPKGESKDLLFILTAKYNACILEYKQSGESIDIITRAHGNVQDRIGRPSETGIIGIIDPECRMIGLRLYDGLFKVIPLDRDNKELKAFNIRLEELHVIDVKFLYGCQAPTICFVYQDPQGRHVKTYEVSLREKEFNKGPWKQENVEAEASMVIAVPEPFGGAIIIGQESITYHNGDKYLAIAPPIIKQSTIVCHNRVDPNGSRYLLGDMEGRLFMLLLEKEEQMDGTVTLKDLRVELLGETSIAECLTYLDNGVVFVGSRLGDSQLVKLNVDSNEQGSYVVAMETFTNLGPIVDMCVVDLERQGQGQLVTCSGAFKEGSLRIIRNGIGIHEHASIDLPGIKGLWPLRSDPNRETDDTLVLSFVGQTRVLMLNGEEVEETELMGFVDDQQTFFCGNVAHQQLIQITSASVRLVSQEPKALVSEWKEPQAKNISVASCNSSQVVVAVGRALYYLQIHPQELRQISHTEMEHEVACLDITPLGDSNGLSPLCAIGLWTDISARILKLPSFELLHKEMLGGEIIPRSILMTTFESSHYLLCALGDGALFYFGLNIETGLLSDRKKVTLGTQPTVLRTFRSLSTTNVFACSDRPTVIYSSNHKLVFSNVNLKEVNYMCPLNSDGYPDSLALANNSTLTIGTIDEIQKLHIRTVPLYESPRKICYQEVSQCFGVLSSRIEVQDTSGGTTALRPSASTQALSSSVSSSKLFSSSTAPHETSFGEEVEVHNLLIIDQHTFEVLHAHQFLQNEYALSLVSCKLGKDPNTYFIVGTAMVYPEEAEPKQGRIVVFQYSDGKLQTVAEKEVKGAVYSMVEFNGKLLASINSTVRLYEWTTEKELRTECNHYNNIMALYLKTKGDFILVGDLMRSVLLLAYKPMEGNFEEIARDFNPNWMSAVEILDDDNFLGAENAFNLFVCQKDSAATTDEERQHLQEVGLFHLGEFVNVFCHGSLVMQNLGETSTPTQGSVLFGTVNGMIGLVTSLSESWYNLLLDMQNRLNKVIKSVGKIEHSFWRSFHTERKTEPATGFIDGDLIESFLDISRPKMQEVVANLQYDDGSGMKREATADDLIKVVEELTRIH
T2 sequence (P48729 whole entry): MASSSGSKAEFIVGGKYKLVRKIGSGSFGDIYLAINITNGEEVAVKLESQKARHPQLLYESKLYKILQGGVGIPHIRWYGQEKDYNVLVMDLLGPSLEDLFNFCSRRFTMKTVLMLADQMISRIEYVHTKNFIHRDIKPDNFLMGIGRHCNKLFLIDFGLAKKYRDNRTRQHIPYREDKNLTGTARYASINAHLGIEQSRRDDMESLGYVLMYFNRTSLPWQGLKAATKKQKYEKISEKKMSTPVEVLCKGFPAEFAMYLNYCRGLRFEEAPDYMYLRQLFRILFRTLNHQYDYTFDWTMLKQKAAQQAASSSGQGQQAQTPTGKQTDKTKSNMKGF
T2 sequence (Q96SW2 whole entry): as the sequence (Q96SW2 whole entry) above
T2 sequence (Q16531 whole entry partner): as the sequence (Q16531 whole entry partner) above

IKAROS % degradation at 1 µM (IKAROS)	percent degradation at 1 µM (CK1α)	Structure (SMILES)	fold induction at 10 µM (IL-2)	inhibition at 10 µM (TNFα)	inhibition at 10 µM (IL-1β)	inhibition at 10 µM (IL-6)	viability at 10 µM (MOLM-13 cells)	IKAROS % Degradation at 10 μM (IKAROS)
		O=C1CC[C@H](N2Cc3c(csc3COc3ccc(CN4CCOCC4)cn3)C2=O)C(=O)N1 [Compound 12, (S)-3-(1-(((5-(morpholinomethyl)pyridin-2-yl)oxy)methyl)-4-oxo-4H-thieno[3,4-c]pyrrol-5(6H)-yl)piperidine-2,6-dione]	1 to 2	< 50%				
25 to 50%	50 to 75%	O=C1CC[C@H](N2Cc3c(csc3COc3ccc(CN4CCCC4)cc3)C2=O)C(=O)N1 [Compound 13, (S)-3-(4-oxo-1-((4-(pyrrolidin-1-ylmethyl)phenoxy)methyl)-4H-thieno[3,4-c]pyrrol-5(6H)-yl)piperidine-2,6-dione]	2 to 3	> 90%	> 90%	50 to 70%	50 to 75%	
		O=C1CC[C@H](N2C(=O)c3csc(COc4ccc(CN5CCOCC5)cc4)c3C2=O)C(=O)N1 [Compound 20, (S)-5-(2,6-dioxopiperidin-3-yl)-1-((4-(morpholinomethyl)phenoxy)methyl)-4H-thieno[3,4-c]pyrrole-4,6(5H)-dione]	1 to 2	50 to 70%	50 to 70%		< 25%	B (“B” represents a % degradation value of equal to or more than 25% and less than 50% (25%≤value<50%))
25 to 50%		O=C1CC[C@H](N2Cc3c(csc3CCc3ccc(CN4CCOCC4)cc3)C2=O)C(=O)N1 [Compound 6, (S)-3-(1-(4-(morpholinomethyl)phenethyl)-4-oxo-4H-thieno[3,4-c]pyrrol-5(6H)-yl)piperidine-2,6-dione]	2 to 3	70 to 90%	70 to 90%	< 50%		
25 to 50%		O=C1CC[C@H](N2Cc3c(csc3COc3ccc(CN4CCOCC4)cc3F)C2=O)C(=O)N1 [Compound 8, (S)-3-(1-((2-fluoro-4-(morpholinomethyl)phenoxy)methyl)-4-oxo-4H-thieno[3,4-c]pyrrol-5(6H)-yl)piperidine-2,6-dione]	2 to 3	> 90%	> 90%	70 to 90%		
		O=C1CC[C@H](N2Cc3cc(COc4ccc(CN5CCOCC5)cc4)sc3C2=O)C(=O)N1 [Compound 16, (S)-3-(2-((4-(morpholinomethyl)phenoxy)methyl)-6-oxo-4H-thieno[2,3-c]pyrrol-5(6H)-yl)piperidine-2,6-dione]	≤ 1	< 50%				A (“A” represents a % degradation value of less than 25% (value<25%))
50 to 75%		O=C1CC[C@H](N2Cc3c(csc3COc3cccc(CN4CCOCC4)c3)C2=O)C(=O)N1 [Compound 7, (S)-3-(1-((3-(morpholinomethyl)phenoxy)methyl)-4-oxo-4H-thieno[3,4-c]pyrrol-5(6H)-yl)piperidine-2,6-dione]	2 to 3	70 to 90%	70 to 90%			
	≥ 75%	CN(C)Cc1ccc(OCc2scc3c2CN([C@H]2CCC(=O)NC2=O)C3=O)cc1 [Compound 18, (S)-3-(1-((4-((dimethylamino)methyl)phenoxy)methyl)-4-oxo-4H-thieno[3,4-c]pyrrol-5(6H)-yl)piperidine-2,6-dione]	2 to 3	70 to 90%	50 to 70%		< 25%	C (“C” represents a % degradation value of equal to or more than 50% and less than 75% (50%≤value <75%))
25 to 50%	25 to 50%	O=C1CC[C@H](N2Cc3c(csc3COc3ccc(CCN4CCOCC4)cc3)C2=O)C(=O)N1 [Compound 15, (S)-3-(1-((4-(2-morpholinoethyl)phenoxy)methyl)-4-oxo-4H-thieno[3,4-c]pyrrol-5(6H)-yl)piperidine-2,6-dione]	> 3	70 to 90%	> 90%	50 to 70%		
		O=C1CC[C@H](N2Cc3c(NCc4ccc(CN5CCOCC5)cc4)csc3C2=O)C(=O)N1 [Compound 3, (S)-3-(3-((4-(morpholinomethyl)benzyl)amino)-6-oxo-4H-thieno[2,3-c]pyrrol-5(6H)-yl)piperidine-2,6-dione]	≤ 1	< 50%				C (“C” represents a % degradation value of equal to or more than 50% and less than 75% (50%≤value <75%))
		O=C1CC[C@H](N2Cc3c(csc3CNc3ccc(CN4CCOCC4)cc3)C2=O)C(=O)N1 [Compound 10, (S)-3-(1-(((4-(morpholinomethyl)phenyl)amino)methyl)-4-oxo-4H-thieno[3,4-c]pyrrol-5(6H)-yl)piperidine-2,6-dione]	2 to 3	> 90%	70 to 90%	< 50%	25 to 50%	
		O=C1CC[C@H](N2Cc3c(CNc4ccc(CN5CCOCC5)cc4)csc3C2=O)C(=O)N1 [Compound 11, (S)-3-(3-(((4-(morpholinomethyl)phenyl)amino)methyl)-6-oxo-4H-thieno[2,3-c]pyrrol-5(6H)-yl)piperidine-2,6-dione]	1 to 2	< 50%			< 25%	
		O=C1CC[C@H](N2Cc3c(csc3COCc3ccc(CN4CCOCC4)cc3)C2=O)C(=O)N1 [Compound 9, (S)-3-(1-(((4-(morpholinomethyl)benzyl)oxy)methyl)-4-oxo-4H-thieno[3,4-c]pyrrol-5(6H)-yl)piperidine-2,6-dione]	> 3	> 90%	70 to 90%	< 50%		
		O=C1CC[C@H](N2Cc3c(COc4ccc(CN5CCOCC5)cc4)csc3C2=O)C(=O)N1 [Compound 5, (S)-3-(3-((4-(morpholinomethyl)phenoxy)methyl)-6-oxo-4H-thieno[2,3-c]pyrrol-5(6H)-yl)piperidine-2,6-dione]	1 to 2					
